Measured values as given in ChEMBL document CHEMBL1159250, “A novel phorbol ester from Excoecaria agallocha” (J Nat Prod, 1995).

Legend:
[1] = system: Human immunodeficiency virus 1; experiment: Inhibition of HIV1 replication in human H9 cells assessed as inhibition of supernatant reverse transcriptase and p24 level; format: functional, organism-based; conditions: Human immunodeficiency virus 1, H9
[2] = target: Protein kinase C (PKC); experiment: Displacement of [3H]PDBu from rat brain membrane PKC; format: tissue-based
[3] = system: H9; experiment: Cytotoxicity in human H9 cells upto 2 uM; format: cell-based

In the case of `CCCC/C=C/C=C/CC(=O)O[C@@]12C[C@H](C)[C@@]3(O)[C@@H](C=C(CO)C[C@]4(O)C(=O)C(C)=C[C@@H]34)[C@@H]1C2(C)C`, the IC50 [1] is reported as 6 nM, the IC50 [2] is reported as 17 nM and the Activity [3] is reported as “Non-toxic”.
